Target: T1, Human TREM2 (Homo sapiens, UniProt Q9NZC2)
T1 construct: expressed in transfected cells
Test: Human TREM2 cellular phospho-Syk AlphaLISA assay in HEK293/DAP12+TREM2 stable cell line
Format: cell-based
Settings: HEK293/DAP12+TREM2 cells; for Emax: maximal response relative to the maximal response of the reference agonist, phospho-Syk AlphaLISA; for EC50: phospho-Syk (Tyr525/526) AlphaLISA signal, 30 min incubation
Source text: Human TREM2, in vitro Measurement of Triggering Receptor Expressed on Myeloid Cells 2 activity using cellular phosphorylation of Spleen Tyrosine Kinase (“Syk”) Assay
HEK-293 cells were co-transfected with separate plasmids encoding TREM2 and DAP12 to generate a stable cell line. After antibiotic selection, functional clone pool analysis and two successive limiting dilutions, the final clone “HEK293/DAP12+TREM2” underwent a qPCR analysis and a pharmacological validation.
TREM2 signaling through DAP12 was monitored in the HEK293/DAP12+TREM2 stable cell line by measuring the phosphorylation levels of the Syk kinase using the commercially available AlphaLISA SureFire Ultra p-SYK (Tyr525/526) Assay Kit (PerkinElmer #ALSU-PSYK), based on the Perkin Elmer AlphaScreen/AlphaLISA technology.
Compounds are transferred to the test plate and tested in full dose response, 8 concentrations in quadruplicate data points. Compound serial dilutions were performed at Cybi-Felix instrument in 100% DMSO and the dose response curves were assembled in automated fashion in 384MPT at Hamilton STARlet instrument. All the stock solutions were prepared at 20 mM in 100% DMSO. For compounds testing, the starting concentration was 100 μM, dilution steps 1:6. A different concentration's range was adapted for compound's activity based on the preliminary results. Finally, a 384MPT reformatted for all compounds at 8 concentrations, quadruplicates, was used as “mother to child” process with a CyBi@-Well dispenser in which 1 μL of each compound was moved into a destination plate pre-filled with […] of EMEM cell culture medium (BIOWHITTAKER_cat.BE12-125F), thus obtaining 3× concentrated compounds working solution. In columns 1-2 and 23-24 the control wells were added. In particular, dose response curves of a reference control agonist were included in column 1 and 24 as reference control agonist (Reference control agonists used include Human TREM2 polyclonal Antibody AF1828: R&D Systems; Human TREM2 monoclonal Antibody MAB1828: R&D Systems). The dose response curves were tested starting at 30 μM, dilution step 1:6. Both “source” compound plate and “destination” compound plate were barcoded and a relationship between the two plates was thus generated.
HEK293/DAP12+TREM2 cells were cultured in EMEM medium supplemented with IX Penicillin/Streptomycin (BIOWHITTAKER_cat.DE17-602E), ULTRAGLUTAMINE I 200 mM, 10% Fetal Bovine Serum plus antibiotics referred to as “HEK293 Culture Medium”. The day before the experiment, cells were detached by gentle wash with DPBS, followed by 5 min incubation at 37° C. with Trypsin solution. Cells were then diluted in HEK293 Culture Medium without antibiotics, counted and seeded into 384-well poly-D-Lysine coated microplates black/clear bottom (GREINER 781946) at a density of 10,000 cells/well in 25 μL/well by the use of a MATRIX WellMate dispenser. Plates were placed into a humidified cell culture incubator at 37° C. with 5% CO2 until the experimental day. 20-24 hours after seeding mature medium was removed and replaced with 10 μL/well of EMEM cell medium supplemented with 0.1% Pluronic F-68 non-ionic surfactant (Thermofisher, 24040032), referred to as “Assay Buffer”, using the CyBi@-Well instrument. Then 5 μL/well of Assay Buffer containing 3× concentrated test compounds or the reference control agonist (in 0.5% final DMSO concentration) were added to the cells with the CyBi@-Well instrument. Cell plates were incubated for 30 min into a humidified cell culture incubator at 37° C. with 5% CO2, then the medium was removed by manually discard. 20 μL/well of lysis buffer were dispensed using the CyBi@-Well instrument and plates were incubated for 10 min at room temperature on a plate shaker (350 rpm). Then, 10 μL/well of lysate were transferred to the Alpha plates.
The CyBi@-Well instrument was used to dispense 5 μL/well of AlphaLISA Acceptor Bead Solution in IX Immunoassay buffer (Perkin Elmer AL000F). […]

T1 sequence (Q9NZC2 19-230): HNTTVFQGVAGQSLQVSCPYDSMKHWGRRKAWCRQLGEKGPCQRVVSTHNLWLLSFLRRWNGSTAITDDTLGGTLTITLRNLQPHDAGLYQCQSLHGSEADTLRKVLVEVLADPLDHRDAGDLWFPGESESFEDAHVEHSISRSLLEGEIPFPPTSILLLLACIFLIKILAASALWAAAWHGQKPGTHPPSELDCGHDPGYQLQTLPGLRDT
T1 sequence (O43914 22-113 partner): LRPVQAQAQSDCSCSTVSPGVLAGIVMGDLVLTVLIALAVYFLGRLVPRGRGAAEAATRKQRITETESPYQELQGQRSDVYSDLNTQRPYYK

| SMILES | Emax [%] | EC50 [nM] |
| --- | --- | --- |
| Cn1c(C(F)(F)F)nc2c(-c3ccc(C#N)cc3F)nc(N3CC(Oc4cnn(C5CC5)c4)C3)nc2c1=O [Example 1, 4-(2-(3-((1-cyclopropyl-1H-pyrazol-4-yl)oxy)azetidin-1-yl)-7-methyl-8-oxo-6-(trifluoromethyl)-7,8-dihydropyrimido[5,4-d]pyrimidin-4-yl)-3-fluorobenzonitrile] | 75 to 110 | < 10 |
| Cn1c(C(F)(F)F)nc2c(-c3ccc(C#N)cc3F)nc(N3CC(Oc4nncs4)C3)nc2c1=O [Example 2, 4-(2-(3-((1,3,4-thiadiazol-2-yl)oxy)azetidin-1-yl)-7-methyl-8-oxo-6-(trifluoromethyl)-7,8-dihydropyrimido[5,4-d]pyrimidin-4-yl)-3-fluorobenzonitrile] | < 75 | > 1000 |
| Cc1nnc(OC2CN(c3nc(-c4ccc(C#N)cc4F)c4nc(C(F)(F)F)n(C)c(=O)c4n3)C2)s1 [Example 3, 3-fluoro-4-(7-methyl-2-(3-((5-methyl-1,3,4-thiadiazol-2-yl)oxy)azetidin-1-yl)-8-oxo-6-(trifluoromethyl)-7,8-dihydropyrimido[5,4-d]pyrimidin-4-yl)benzonitrile] | < 75 | 100 to 1000 |
| CCc1nnc(OC2CN(c3nc(-c4ccc(C#N)cc4F)c4nc(C(F)(F)F)n(C)c(=O)c4n3)C2)s1 [Example 4, 4-(2-(3-((5-ethyl-1,3,4-thiadiazol-2-yl)oxy)azetidin-1-yl)-7-methyl-8-oxo-6-(trifluoromethyl)-7,8-dihydropyrimido[5,4-d]pyrimidin-4-yl)-3-fluorobenzonitrile] | 75 to 110 | 100 to 1000 |

Results, then the molecule that gave them:

| Emax [%] | EC50 [nM] | SMILES |
| --- | --- | --- |
| < 75 | 10 to 100 | Cn1c(C(F)(F)F)nc2c(-c3ccc(C#N)cc3F)nc(N3CC(Oc4cnccn4)C3)nc2c1=O [Example 5, 3-fluoro-4-(7-methyl-8-oxo-2-(3-(pyrazin-2-yloxy)azetidin-1-yl)-6-(trifluoromethyl)-7,8-dihydropyrimido[5,4-d]pyrimidin-4-yl)benzonitrile] |
| < 75 | 100 to 1000 | Cc1cncc(OC2CN(c3nc(-c4ccc(C#N)cc4F)c4nc(C(F)(F)F)n(C)c(=O)c4n3)C2)n1 [Example 6, 3-fluoro-4-(7-methyl-2-(3-((6-methylpyrazin-2-yl)oxy)azetidin-1-yl)-8-oxo-6-(trifluoromethyl)-7,8-dihydropyrimido[5,4-d]pyrimidin-4-yl)benzonitrile] |
| < 75 | 100 to 1000 | Cn1c(C(F)(F)F)nc2c(-c3ccc(C#N)cc3F)nc(N3CC(Oc4cnc(C#N)cn4)C3)nc2c1=O [Example 7, 5-((1-(4-(4-cyano-2-fluorophenyl)-7-methyl-8-oxo-6-(trifluoromethyl)-7,8-dihydropyrimido[5,4-d]pyrimidin-2-yl)azetidin-3-yl)oxy)pyrazine-2-carbonitrile] |
| < 75 | 100 to 1000 | Cc1c(OC2CN(c3nc(-c4ccc(C#N)cc4F)c4nc(C(F)(F)F)n(C)c(=O)c4n3)C2)cnn1C [Example 8, 4-(2-(3-((1,5-dimethyl-1H-pyrazol-4-yl)oxy)azetidin-1-yl)-7-methyl-8-oxo-6-(trifluoromethyl)-7,8-dihydropyrimido[5,4-d]pyrimidin-4-yl)-3-fluorobenzonitrile] |
| 75 to 110 | 100 to 1000 | Cc1n[nH]c(C)c1OC1CN(c2nc(-c3ccc(C#N)cc3F)c3nc(C(F)(F)F)n(C)c(=O)c3n2)C1 [Example 9, 4-(2-(3-((3,5-dimethyl-1H-pyrazol-4-yl)oxy)azetidin-1-yl)-7-methyl-8-oxo-6-(trifluoromethyl)-7,8-dihydropyrimido[5,4-d]pyrimidin-4-yl)-3-fluorobenzonitrile] |
| < 75 | 100 to 1000 | Cc1nn(C)cc1OC1CN(c2nc(-c3ccc(C#N)cc3F)c3nc(C(F)(F)F)n(C)c(=O)c3n2)C1 [Example 10, 4-(2-(3-((1,3-dimethyl-1H-pyrazol-4-yl)oxy)azetidin-1-yl)-7-methyl-8-oxo-6-(trifluoromethyl)-7,8-dihydropyrimido[5,4-d]pyrimidin-4-yl)-3-fluorobenzonitrile] |
